Test results reported in patent US10588317B2, “Isoxazoline-substituted benzamides and analogues as insecticides” (priority 2015, dated 2020).

Assays:
Format in all cases: in vivo
Euschistus heros = Euschistus heros (neotropical brown stink bug), sprayed soybean leaves; conditions: 120 h, application rate 200 ppm, N2 nymphs, 5 days after infestation, read-out: effect in at least one of the two categories (mortality or growth inhibition)
Protocol: Soybean leaves on agar in 24-well microtiter plates were sprayed with aqueous test solutions prepared from 10'000 ppm DMSO stock solutions. After drying the leaves were infested with N2 nymphs. The samples were assessed for mortality and growth inhibition in comparison to untreated samples 5 days after infestation.
(§1) The following compounds gave an effect of at least 80% in at least one of the two categories (mortality or growth inhibition) at an application rate of 200 ppm: […]

Spodoptera littoralis = Spodoptera littoralis (Egyptian cotton leaf worm), sprayed cotton leaf discs; conditions: foliar, 72 h, application rate 200 ppm, L1 larvae, 3 days after infestation, read-out: control (mortality, anti-feeding effect, growth inhibition)
Protocol: Cotton leaf discs were placed onto agar in 24-well microtiter plates and sprayed with aqueous test solutions prepared from 10'000 ppm DMSO stock solutions. After drying the leaf discs were infested with five L1 larvae. The samples were assessed for mortality, anti-feeding effect, and growth inhibition in comparison to untreated samples 3 days after infestation. Control of Spodoptera littoralis by a test sample is given when at least one of the categories mortality, anti-feedant effect, and growth inhibition is higher than the untreated sample.

Diabrotica balteata = Diabrotica balteata (corn root worm), sprayed maize sprouts; conditions: 96 h, application rate 200 ppm, L2 larvae, 4 days after infestation, read-out: effect in at least one of the two categories (mortality or growth inhibition)
Protocol: Maize sprouts placed onto an agar layer in 24-well microtiter plates were treated with aqueous test solutions prepared from 10'000 ppm DMSO stock solutions by spraying. After drying, the plates were infested with L2 larvae (6 to 10 per well). The samples were assessed for mortality and growth inhibition in comparison to untreated samples 4 days after infestation.
as §1

Tetranychus urticae = Tetranychus urticae (two-spotted spider mite): feeding/contact activity; conditions: 192 h, application rate 200 ppm, mixed population (mobile stages), 8 days after infestation, read-out: mortality
Protocol: Bean leaf discs on agar in 24-well microtiter plates were sprayed with aqueous test solutions prepared from 10'000 ppm DMSO stock solutions. After drying the leaf discs were infested with a mite population of mixed ages. The samples were assessed for mortality on mixed population (mobile stages) 8 days after infestation.

Plutella xylostella = Plutella xylostella (diamond back moth), artificial diet; conditions: 120 h, application rate 200 ppm, L2 larvae, 5 days after infestation, read-out: effect in at least one of the two categories (mortality or growth inhibition)
Protocol: 24-well microtiter plates with artificial diet were treated with aqueous test solutions prepared from 10'000 ppm DMSO stock solutions by pipetting. After drying, the plates were infested with L2 larvae (10 to 15 per well). The samples were assessed for mortality and growth inhibition in comparison to untreated samples 5 days after infestation.
as §1

Thrips tabaci = Thrips tabaci (onion thrips): feeding/contact activity; conditions: 144 h, application rate 200 ppm, Thrips population of mixed ages, 6 days after infestation, read-out: mortality
Protocol: Sunflower leaf discs were placed on agar in 24-well microtiter plates and sprayed with aqueous test solutions prepared from 10'000 ppm DMSO stock solutions. After drying the leaf discs were infested with a Thrips population of mixed ages. The samples were assessed for mortality 6 days after infestation.

CS(=O)(=O)N1CC(NC(=O)c2ccc(C3=NOC(c4cc(Cl)cc(Cl)c4)(C(F)(F)F)C3)cc2C(F)(F)F)CO1 (stereo not drawn) [Compound A58]
≥ 80%: percent effect (mortality or growth inhibition) at 200 ppm (Euschistus heros) | mortality at 200 ppm (Spodoptera littoralis) | percent effect (mortality or growth inhibition) at 200 ppm (Diabrotica balteata) | mortality at 200 ppm (Tetranychus urticae) | percent effect (mortality or growth inhibition) at 200 ppm (Plutella xylostella) | mortality at 200 ppm (Thrips tabaci)

Cc1cc(C2=NOC(c3cccc(C(F)(F)F)c3)(C(F)(F)F)C2)ccc1C(=O)NC1CON(S(C)(=O)=O)C1 (stereo not drawn) [Compound A60]
≥ 80%: percent effect (mortality or growth inhibition) at 200 ppm (Euschistus heros) | mortality at 200 ppm (Spodoptera littoralis) | percent effect (mortality or growth inhibition) at 200 ppm (Diabrotica balteata) | mortality at 200 ppm (Tetranychus urticae) | percent effect (mortality or growth inhibition) at 200 ppm (Plutella xylostella) | mortality at 200 ppm (Thrips tabaci)

COC(=O)CN(C)S(=O)(=O)N1CC(NC(=O)c2ccc(C3=NO[C@@](c4cc(Cl)c(Cl)c(Cl)c4)(C(F)(F)F)C3)cc2C)CO1 (stereo partly drawn) [Compound A88, methyl 2-[methyl-[4-[[2-methyl-4-[(5S)-5-(3,4,5-trichlorophenyl)-5-(trifluoromethyl)-4H-isoxazol-3-yl]benzoyl]amino]isoxazolidin-2-yl]sulfonyl-amino]acetate]
≥ 80%: percent effect (mortality or growth inhibition) at 200 ppm (Euschistus heros) | mortality at 200 ppm (Spodoptera littoralis) | percent effect (mortality or growth inhibition) at 200 ppm (Diabrotica balteata) | mortality at 200 ppm (Tetranychus urticae) | percent effect (mortality or growth inhibition) at 200 ppm (Plutella xylostella) | mortality at 200 ppm (Thrips tabaci)

CCOC(=O)CN(C)S(=O)(=O)N1CC(NC(=O)c2ccc(C3=NO[C@@](c4cc(Cl)c(Cl)c(Cl)c4)(C(F)(F)F)C3)cc2C)CO1 (stereo partly drawn) [Compound A89, ethyl 2-[methyl-[4-[[2-methyl-4-[(5S)-5-(3,4,5-trichlorophenyl)-5-(trifluoromethyl)-4H-isoxazol-3-yl]benzoyl]amino]isoxazolidin-2-yl]sulfonyl-amino]acetate]
≥ 80%: percent effect (mortality or growth inhibition) at 200 ppm (Euschistus heros) | mortality at 200 ppm (Spodoptera littoralis) | percent effect (mortality or growth inhibition) at 200 ppm (Diabrotica balteata) | mortality at 200 ppm (Tetranychus urticae) | percent effect (mortality or growth inhibition) at 200 ppm (Plutella xylostella) | mortality at 200 ppm (Thrips tabaci)

Cc1cc(C2=NO[C@@](c3cc(Cl)c(F)c(Cl)c3)(C(F)(F)F)C2)ccc1C(=O)NC1CON(S(=O)(=O)N(C)S(C)(=O)=O)C1 (stereo partly drawn) [Compound A92]
≥ 80%: percent effect (mortality or growth inhibition) at 200 ppm (Euschistus heros) | mortality at 200 ppm (Spodoptera littoralis) | percent effect (mortality or growth inhibition) at 200 ppm (Diabrotica balteata) | mortality at 200 ppm (Tetranychus urticae) | percent effect (mortality or growth inhibition) at 200 ppm (Plutella xylostella) | mortality at 200 ppm (Thrips tabaci)

C=CCN(C(=O)OC(C)(C)C)S(=O)(=O)N1CC(NC(=O)c2ccc(C3=NO[C@@](c4cc(Cl)c(F)c(Cl)c4)(C(F)(F)F)C3)cc2C)CO1 (stereo partly drawn) [Compound A94, tert-butyl N-allyl-N-[4-[[4-[(5S)-5-(3,5-dichloro-4-fluoro-phenyl)-5-(trifluoromethyl)-4H-isoxazol-3-yl]-2-methyl-benzoyl]amino]isoxazolidin-2-yl]sulfonyl-carbamate]
≥ 80%: percent effect (mortality or growth inhibition) at 200 ppm (Euschistus heros) | mortality at 200 ppm (Spodoptera littoralis) | percent effect (mortality or growth inhibition) at 200 ppm (Diabrotica balteata) | mortality at 200 ppm (Tetranychus urticae) | percent effect (mortality or growth inhibition) at 200 ppm (Plutella xylostella) | mortality at 200 ppm (Thrips tabaci)

Cc1cc(C2=NO[C@@](c3cc(Cl)c(F)c(Cl)c3)(C(F)(F)F)C2)ccc1C(=O)NC1CON(S(=O)(=O)NS(C)(=O)=O)C1 (stereo partly drawn) [Compound A102, 4-[(5S)-5-(3,5-dichloro-4-fluoro-phenyl)-5-(trifluoromethyl)-4H-isoxazol-3-yl]-2-methyl-N-[2-(methylsulfonylsulfamoyl)isoxazolidin-4-yl]benzamide]
≥ 80%: percent effect (mortality or growth inhibition) at 200 ppm (Euschistus heros) | mortality at 200 ppm (Spodoptera littoralis) | percent effect (mortality or growth inhibition) at 200 ppm (Diabrotica balteata) | mortality at 200 ppm (Tetranychus urticae) | percent effect (mortality or growth inhibition) at 200 ppm (Plutella xylostella) | mortality at 200 ppm (Thrips tabaci)
